The target of assay [1] is T1, human Adenosine A1 receptor (Homo sapiens, UniProt P30542).
T1 construct: host or cells: CHO-K1
T1 sequence (P30542 1-326): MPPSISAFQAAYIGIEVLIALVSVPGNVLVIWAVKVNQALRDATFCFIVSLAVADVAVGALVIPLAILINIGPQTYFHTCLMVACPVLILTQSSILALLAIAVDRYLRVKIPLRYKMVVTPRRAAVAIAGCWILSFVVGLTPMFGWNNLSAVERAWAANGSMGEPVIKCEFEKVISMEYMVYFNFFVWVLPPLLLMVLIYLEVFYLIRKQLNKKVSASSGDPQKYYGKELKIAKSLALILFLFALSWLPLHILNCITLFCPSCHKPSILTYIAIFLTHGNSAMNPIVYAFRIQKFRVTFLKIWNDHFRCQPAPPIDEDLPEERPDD
The assay is described as follows: GTPγS scintillation proximity assay, agonist testing. To be noted: agonist activity; membrane extracts of CHO-K1 cells expressing recombinant human A1; read-out: A1AR EC50. In kind it is biochemical. As to the method:
(§1) SPA ^35S-GTPγS experiments were conducted with Epics Therapeutics membrane preparations. cAMP HTRF assays were conducted with recombinant cell lines.
• Assay buffer: 20 mM HEPES pH 7.4; 100 mM NaCl, 10 μg/mL saponin, MgCl2 at optimized concentration for the specific receptor. • Membranes: membrane extracts prepared from CHO-K1 cells expressing recombinant human Adenosine A1 receptor, thawed on ice, diluted in assay buffer and kept on ice. • GDP: diluted in assay buffer at the optimized concentration for the specific receptor Beads: PVT-WGA (Perkin Elmer, RPNQ001), diluted in assay buffer at 50 mg/mL (0.5 mg/10 μL) • GTPγ^35S: (Perkin Elmer, NEG030X), diluted in assay buffer for a final 0.1 nM assay concentration
Protocol for agonist testing: membranes are mixed with GDP (volume:volume). In parallel, GTPγ[^35S] is mixed with the beads (volume:volume) just before starting the reaction. The following reagents are successively added in the wells of an Optiplate (Perkin Elmer): 50 μL of test or reference ligand, 25 μL of the membranes:GDP mix, and 25 μL of the GTPγ[^35S]:beads mix. The plates are covered with a top seal, mixed on an orbital shaker for 2 min, and then incubated for 1 hour at room temperature. Then the plates are centrifuged for 10 min at 2000 rpm, incubated at room temperature and counted for 30 sec/well with a PerkinElmer TopCount™ reader. • Conditions for the GTPγS scintillation proximity assay are shown in Table 14.

Another assay addresses T2, human A2B (Homo sapiens, UniProt P29275).
T2 construct: expressed in transfected cells; host or cells: HEK293
T2 sequence (P29275 1-332): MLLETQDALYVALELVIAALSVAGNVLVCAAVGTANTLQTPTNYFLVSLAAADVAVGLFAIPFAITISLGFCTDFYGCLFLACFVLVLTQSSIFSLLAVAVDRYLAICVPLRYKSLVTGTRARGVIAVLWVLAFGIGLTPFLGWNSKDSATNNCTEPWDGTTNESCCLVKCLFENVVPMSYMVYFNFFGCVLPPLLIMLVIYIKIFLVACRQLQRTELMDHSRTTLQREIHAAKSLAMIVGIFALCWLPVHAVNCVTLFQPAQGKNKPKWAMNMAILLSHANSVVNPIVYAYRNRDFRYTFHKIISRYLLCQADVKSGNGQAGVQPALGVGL
The assay is described as follows: cAMP HTRF assay for Gs coupled receptor, agonist test. The class given is cell-based. To be noted: agonist activity; HEK293 cells expressing recombinant human A2B; read-out: A2BAR EC50. As to the method:
as §1
Dose response curves are performed in parallel with the reference compounds.
For agonist test (96 well): 12 μL of cells are mixed with 12 μL of the test compound at increasing concentrations and then incubated 30 min at room temperature. After addition of the lysis buffer containing cAMP-d2 and anti-cAMP cryptate detection reagents, plates are incubated 1 hour incubation at room temperature, and fluorescence ratios are measured according to the manufacturer specification, with the HTRF kit.

As for `COCCOc1ccc(-c2c(C#N)cnc(SCc3cccnc3)c2C#N)cc1` [Compound 83, 4-[4-(2-Methoxyethoxy)phenyl]-2-(3-pyridylmethylthio)-pyridine-3,5-dicarbonitrile], the EC50 in assay [1] was 282 nM; at human A2B, over 10000 nM.
As to `N#Cc1cnc(SCc2cccnc2)c(C#N)c1-c1ccc(OCCO)cc1` [Compound 84], the figures for the concentration giving a half-maximal response (EC50) (in assay [1]; on human A2B) were 44 nM and 6.8 nM, respectively.
For `COCCOc1ccc(-c2c(C#N)c(SCCO)nc(N3CCC3)c2C#N)cc1` [Compound 89], in that order: 819 nM and over 10000 nM.
As for `N#Cc1c(SCCO)nc(N2CCC2)c(C#N)c1-c1ccc(OCCO)cc1` [Compound 90], the half-maximal effective concentration (EC50) in assay [1] worked out at 347 nM; at human A2B, 869 nM.
For `N#Cc1c(N)nc(SCCOC(F)F)c(C#N)c1-c1ccc(OCCO)cc1` [Compound 93], in that order: 109 nM and 64 nM.
For `COCCOc1ccc(-c2c(C#N)cnc(SCCO)c2C#N)cc1` [Compound 94], in that order: 1010 nM and over 10000 nM.
For `N#Cc1c(SCCO)nc(N2CCCC2)c(C#N)c1-c1ccc(OCCO)cc1` [Compound 95], in that order: 276 nM and 459 nM.
`N#Cc1c(SCCC(N)=O)nc(N2CCCC2)c(C#N)c1-c1ccc(OCCO)cc1` [Compound 96]: the 50% effective concentration (EC50) is over 10000 nM in assay [1] and 97 nM at human A2B.
For `N#Cc1c(SCCC(F)(F)F)nc(N2CCCC2)c(C#N)c1-c1ccc(OCCO)cc1` [Compound 104], in that order: 1790 nM and over 10000 nM.
In the case of `CC(O)CSc1nc(N2CCCC2)c(C#N)c(-c2ccc(OCCO)cc2)c1C#N` (centres unmarked) [Compound 106], the figures for the EC50 (in assay [1]; on human A2B) were 502 nM and over 10000 nM, respectively.
For `COCCOc1ccc(-c2c(C#N)c(SCc3cccnc3)nc(N3CCCC3)c2C#N)cc1` [Compound 107], the results for the EC50 (in assay [1]; at human A2B) were 97 nM and over 10000 nM, respectively.
For `N#Cc1c(N)nc(SCC2CCO2)c(C#N)c1-c1ccc(OCCO)cc1` (centres unmarked) [Compound 110], in that order: 253 nM and 177 nM.
For the compound `COCCOc1ccc(-c2c(C#N)c(N)nc(SCC3CCO3)c2C#N)cc1` (centres unmarked) [Compound 112], the EC50 is 944 nM in assay [1] and over 10000 nM at human A2B.
For `N#Cc1c(N)nc(SCCC(F)(F)F)c(C#N)c1-c1ccc(OCCO)cc1` [Compound 113], in that order: 316 nM and at least 10000 nM.
As for `N#Cc1c(SCc2cccnc2)nc(N2CCCC2)c(C#N)c1-c1ccc(OCCO)cc1` [Compound 114], the EC50 was 7.6 nM in assay [1] and 18 nM at human A2B.
Regarding `COCCOc1ccc(-c2c(C#N)c(SCc3cccnc3)nc(N3CCC3)c2C#N)cc1` [Compound 115], the EC50 was 31 nM in assay [1] and over 10000 nM at human A2B.
On to `N#Cc1c(SCc2cccnc2)nc(N2CCC2)c(C#N)c1-c1ccc(OCCO)cc1` [Compound 116], for which the EC50 in assay [1] was 2.9 nM; on human A2B, 3.9 nM.
On to `COCCOc1ccc(-c2c(C#N)c(SCCO)nc(N3CCCC3)c2C#N)cc1` [Compound 117], for which the EC50 is 997 nM in assay [1] and over 10000 nM on human A2B.
As for `CC(=O)NCCSc1nc(N)c(C#N)c(-c2ccc(OCCO)cc2)c1C#N` [Compound 119], the EC50 came out at 161 nM in assay [1] and 925 nM on human A2B.
For `COCCOc1ccc(-c2c(C#N)c(N)nc(SCCNC(C)=O)c2C#N)cc1` [Compound 120], in that order: 1000 nM and over 10000 nM.
For `N#CCCSc1nc(N)c(C#N)c(-c2ccc(OCCO)cc2)c1C#N` [Compound 121], in that order: 327 nM and 576 nM.
For `COCCOc1ccc(-c2c(C#N)c(N)nc(SCCC#N)c2C#N)cc1` [Compound 122], in that order: 1020 nM and over 10000 nM.
As for `COCCOc1ccc(-c2c(C#N)c(N)nc(SCC3COC3)c2C#N)cc1` [Compound 123], the figures for the EC50 (in assay [1]; on human A2B) were 72 nM and over 10000 nM, respectively.
For `N#Cc1c(N)nc(CCc2cccnc2)c(C#N)c1-c1ccc(OCCO)cc1` [Compound 125], in that order: over 10000 nM and 468 nM.
For `COCCOc1ccc(-c2c(C#N)c(N)nc(SCC(C)O)c2C#N)cc1` (centres unmarked) [Compound 127], in that order: 91 nM and over 10000 nM.
Take `CNCCSc1nc(N)c(C#N)c(-c2ccc(OCCO)cc2)c1C#N` [Compound 128]: the EC50 in assay [1] is over 10000 nM; on human A2B it was 255 nM.
`N#Cc1c(N)nc(SCC(N)=O)c(C#N)c1-c1ccc(OCCO)cc1` [Compound 129]: the EC50 in assay [1] came out at 121 nM; on human A2B it was 6 nM.
For `CN(C)CCSc1nc(N)c(C#N)c(-c2ccc(OCCO)cc2)c1C#N` [Compound 132], the 50% effective concentration (EC50) was over 10000 nM in assay [1] and 645 nM on human A2B.
For `COCCOc1ccc(-c2c(C#N)c(N)nc(SCC(N)=O)c2C#N)cc1` [Compound 136], in that order: 768 nM and 87 nM.
Consider `CN(C)C(=O)CSc1nc(N)c(C#N)c(-c2ccc(OCCO)cc2)c1C#N` [Compound 138], for which the concentration giving a half-maximal response (EC50) in assay [1] is 891 nM; at human A2B it was 2460 nM.
For `CNC(=O)CSc1nc(N)c(C#N)c(-c2ccc(OCCO)cc2)c1C#N` [Compound 139], in that order: 87 nM and 4.5 nM.
For `CNCCSc1nc(N)c(C#N)c(-c2ccc(OCCOC)cc2)c1C#N` [Compound 140], in that order: 7500 nM and over 10000 nM.
Take `N#Cc1c(N)nc(SCC2CCCO2)c(C#N)c1-c1ccc(OCCO)cc1` (centres unmarked) [Compound 141]: the EC50 in assay [1] came out at 569 nM; at human A2B, 149 nM.
For the compound `CNC(=O)CSc1nc(N)c(C#N)c(-c2ccc(OCCOC)cc2)c1C#N` [Compound 146], the values for the 50% effective concentration (EC50) (in assay [1]; on human A2B) were 177 nM and 59 nM, respectively.
For `COCCOc1ccc(-c2c(C#N)c(N)nc(SCCOC)c2C#N)cc1` [Compound 147], in that order: 55 nM and 8560 nM.
`N#Cc1c(N)nc(SCc2ccccc2)c(C#N)c1-c1ccc(OCCO)cc1` [Compound 150]: the concentration for a half-maximal effect (EC50) in assay [1] amounted to 12 nM; on human A2B, 4.2 nM.
For `COCCSc1nc(N)c(C#N)c(-c2ccc(OCCO)cc2)c1C#N` [Compound 151], in that order: 61 nM and 28 nM.
For `COCCOc1ccc(-c2c(C#N)c(N)nc(SCc3ccccc3)c2C#N)cc1` [Compound 152], in that order: 92 nM and over 10000 nM.
As for `N#Cc1c(N)nc(OCc2cccnc2)c(C#N)c1-c1ccc(OCCO)cc1` [Compound 159], the EC50 in assay [1] is 41 nM; on human A2B, 3.3 nM.
For `CN(Cc1cccnc1)c1nc(N)c(C#N)c(-c2ccc(OCCO)cc2)c1C#N` [Compound 160], in that order: 130 nM and 56 nM.
As to `N#Cc1c(N)nc(NCc2cccnc2)c(C#N)c1-c1ccc(OCCO)cc1` [Compound 161], the values for the EC50 (in assay [1]; on human A2B) were 368 nM and 159 nM, respectively.
On to `N#Cc1c(N)nc(SCc2ccnnc2)c(C#N)c1-c1ccc(OCCO)cc1` [Compound 162], for which the EC50 stood at 11 nM in assay [1] and 0.7 nM at human A2B.
For `N#Cc1c(N)nc(SCc2cnccn2)c(C#N)c1-c1ccc(OCCO)cc1` [Compound 172], the EC50 worked out at 12 nM in assay [1] and 3.9 nM on human A2B.

The values above are taken from patent US20250170112A1, “ADENOSINE LIGANDS FOR THE TREATMENT OF NEUROLOGICAL DISORDERS” (Lucy Therapeutics, Inc., priority 2022, published 2025).
